From patent US10550130B2, “Benzo-thiazolo-imidazole compounds and uses thereof” (KING SAUD UNIVERSITY, priority 2015, dated 2020) come the findings set out here.

One series concerns Numb. Kind of series: Immunofluorescence of Numb in MDA-MB-231 breast cancer cells. The note with it: MDA-MB-231 cells; 0.01, 0.1, 1 or 10 μM. It counts as cell-based. On the procedure: (§1) MDA-MB-231 breast cancer cells were treated either with vehicle (control) or with 0.01 μM, 0.1 μM, 1 μM or 10 μM final concentration of doxorubicin, taxotere or KSA-101696. Then, the cells were cytospun to glass slides by centrifugation at 800 rpm for 3 min. Slides were then air-dried overnight and 4% formaldehyde fixed for 10 min. For staining, the cell membrane was permeabilized with 0.5% triton-X (Sigma) followed by overnight incubation with primary antibodies (anti-Numb, Abcam) and (anti-intracellular Notch-1, Cell Signalling) at 1:100. Cells were washed and stained with AlexaFluor goat anti-rabbit IgG 488 (Invitrogenat) 1:400 for 30 minutes. 300 nM DAPI (Invitrogen, Carlsbad, Calif., USA) was added for 10 minutes to counterstain the nuclei. Slides were mounted and immunofluorescence was visualized using BD Pathway 855 microscope.
(§2) Numb exerts its functional role on cell fate decisions by antagonizing Notch signaling activities. The molecular mechanisms underlying this relationship appear to rely on the ubiquitination of the membrane bound Notch-1 receptor and the subsequent degradation of its NICD (Notch intracellular domain) following receptor activation.

In a further series the test system is intracellular Notch-1. Put plainly: Immunofluorescence of intracellular Notch-1 in MDA-MB-231 breast cancer cells. It counts as cell-based. The note with it: MDA-MB-231 cells; 0.01, 0.1, 1 or 10 μM. The procedure: as §1, §2
Series [1] in a line: Determination of LD50 value. The note with it: male, Swiss Webster Albino, mouse, in vivo, ip. The procedure: Swiss Webster Albino mice were housed in groups of 2 or 4 in elevated steel wire-mesh cages in a controlled room maintained at a temperature of 22±2° C., relative humidity of 50±10% and a 12 h light-dark cycle. Rodent diet chow (feed) provided by Grain Silos Flour Mills Organization, Riyadh, Saudi Arabia, and tap water for drinking were made available ad lib.
Male mice were divided into various groups (n=10 animals per group). Each group was administered a different dose of the respective compound via the intraperitoneal (i.p.) route. The dose range used was 100-5000 mg/kg.
During the observation periods there was a continuous record of any behavioral changes and clinical symptoms that caused by effects on the central and autonomic nervous systems, the respiratory and the cardiovascular systems or any other action on the gastrointestinal tract, the renal systems, eye, skin, skeletal muscles etc.
During the 72 hour observation period the number of animals that died in every group was recorded. The percentage of death calculated and converted to probits to calculate the LD50 value for each compound in mg/kg. The LD50 value reported in this study provided compounds in their liquid form in the provided concentrations.

As usually defined, the LD50 is the dose expected to kill half of the subjects tested. Regarding `COc1cccc2c1C(=O)c1c(O)c3c(c(O)c1C2=O)C[C@@](O)(C(=O)CO)C[C@@H]3O[C@H]1C[C@H](N)[C@H](O)[C@H](C)O1` [Doxorubicin], the “Numb expression (immunofluorescence microscopy)” value with Numb is on record as “inhibited Numb expression”. For the same compound, the Notch self-renewal pathway result in the series with intracellular Notch-1 is “activated the Notch self-renewal pathway”. In addition, in series [1], the LD50 at 72 h is 60 mg/kg.

Take `CC(=O)O[C@@]12CO[C@@H]1C[C@H](O)[C@@]1(C)C(=O)[C@H](O)C3=C(C)[C@@H](OC(=O)[C@H](O)[C@@H](NC(=O)OC(C)(C)C)c4ccccc4)C[C@@](O)([C@@H](OC(=O)c4ccccc4)[C@H]21)C3(C)C` [taxotere]: in the series with Numb, the “Numb expression (immunofluorescence microscopy)” value is “inhibited Numb expression”. Further, the Notch self-renewal pathway result in the series on intracellular Notch-1 is given as “activated the Notch self-renewal pathway”.
